52 compounds from patent US8338465B2, “Cyclic carboxylic acid rhodanine derivatives for the treatment and prevention of tuberculosis” (priority 2006, dated 2012) can be followed below.

Each structure is given as a SMILES string. Like-named read-outs stand apart in the source and are kept apart here.

The target of this assay is T1, dihydrolipoamide acyltransferase (DlaT) (Mycobacterium tuberculosis, UniProt P9WIS7).
T1 sequence (P9WIS7 1-553): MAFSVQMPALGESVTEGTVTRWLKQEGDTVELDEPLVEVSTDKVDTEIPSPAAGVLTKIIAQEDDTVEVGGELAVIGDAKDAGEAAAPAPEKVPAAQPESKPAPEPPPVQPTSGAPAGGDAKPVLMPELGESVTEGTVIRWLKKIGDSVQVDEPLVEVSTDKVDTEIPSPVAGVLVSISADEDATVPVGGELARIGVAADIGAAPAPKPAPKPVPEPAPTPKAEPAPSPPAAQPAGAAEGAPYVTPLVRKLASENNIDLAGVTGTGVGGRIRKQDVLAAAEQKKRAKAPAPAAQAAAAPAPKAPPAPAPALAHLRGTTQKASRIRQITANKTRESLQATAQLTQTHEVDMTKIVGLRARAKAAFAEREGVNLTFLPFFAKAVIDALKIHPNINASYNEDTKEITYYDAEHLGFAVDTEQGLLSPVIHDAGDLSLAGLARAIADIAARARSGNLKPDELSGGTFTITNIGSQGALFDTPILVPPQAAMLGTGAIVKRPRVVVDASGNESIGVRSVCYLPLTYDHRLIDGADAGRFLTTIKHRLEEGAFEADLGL
The assay can be described thus: DlaT inhibition (Dlat IC50); DTNB peroxidase assay with Lpd, DlaT and AhpD. It is filed as biochemical.

Setting [1] is: Table 1, Compounds A1 to A294, read-out: Dlat IC50 category.

As to `CCOc1ccc(-c2ccc(C=C3SC(=S)N(c4cccc(C(=O)O)c4)C3=O)o2)cc1` [Compound A217], under setting [1], the IC50 lay within 11 to 40 µM.

With `COc1ccc(-c2ccc(C=C3SC(=S)N(c4cc(C(=O)O)ccc4F)C3=O)o2)c(C)c1` [Compound A160], the IC50 under setting [1] is less than 10 µM. Turning to `O=C(O)c1cc(N2C(=O)C(=Cc3ccc(-c4cc(Cl)ccc4Cl)o3)SC2=S)ccc1O` [Compound A41], under setting [1], the IC50 is 11 to 40 µM. In the case of `CC(C)(C)c1ccc(-c2ccc(C=C3SC(=S)N(c4cc(C(=O)O)ccc4F)C3=O)o2)cc1` [Compound A100], under setting [1], the IC50 is less than 10 µM. On the same count and under the same terms, to `CCc1ccc(-c2ccc(C=C3SC(=S)N(c4cc(C(=O)O)cc(C(=O)O)c4)C3=O)o2)cc1` [Compound A233] belongs less than 10 µM. Compound `O=C1C(=Cc2ccc(-c3ccccc3Cl)o2)SC(=S)N1C1CCC(O)CC1` (stereo not shown) [Compound C21, 5-[1-[5-(2-chloro-phenyl)-furan-2-yl]-methylidene]-3-(4-hydroxy-cyclohexyl)-2-thioxo-thiazolidin-4-one] returned an IC50 (Dlat IC50 category) of 11 to 40 µM. On the same count and under the same terms, to `O=C(O)CCN1C(=O)C(=Cc2ccc(-c3ccccc3C(F)(F)F)o2)SC1=S` [Compound B4] belongs 11 to 40 µM; to `O=C(O)C(Cc1ccc(O)c(O)c1)N1C(=O)C(=Cc2ccc(-c3ccc(Cl)cc3)o2)SC1=S` (stereo not shown) [Compound B56], 11 to 40 µM.

On to `Cc1ccc(-c2ccc(C=C3SC(=S)N(c4cc(C(=O)O)ccc4F)C3=O)cc2)cc1` [Compound A247], for which, under setting [1], the IC50 lay within 11 to 40 µM.

As for `CCCCOc1ccc(-c2ccc(C=C3SC(=S)N(c4cccc(C(=O)O)c4)C3=O)o2)cc1` [Compound A226], the IC50 under setting [1] is greater than 41 µM. Under “Dlat IC50 category”, `N#Cc1c(F)cccc1-c1ccc(C=C2SC(=S)N(C(C(=O)O)c3ccccc3)C2=O)o1` (stereo not shown) [Compound B89] gave a half-maximal inhibitory concentration (IC50) of 11 to 40 µM.

As to `O=C(O)c1cc(N2C(=O)C(=Cc3ccc(-c4ccccc4OCc4ccccc4)o3)SC2=S)ccc1F` [Compound A279], under setting [1], the IC50 is less than 10 µM. Turning to `NS(=O)(=O)c1ccc(N2C(=O)C(=Cc3ccc(-c4ccc(C(=O)O)cc4)o3)SC2=S)cc1` [Compound A294], under setting [1], the IC50 was less than 10 µM.

Under “Dlat IC50 category, Table 17, Compounds Q1 to Q9”, `O=C(O)c1cccc(N2C(=O)C(=Cc3ccc(-c4ccncc4)o3)SC2=S)c1` [Compound Q4] registered a half-inhibitory concentration (IC50) of 11 to 40 µM.

As to `CC(C)Cc1ccc(-c2ccc(C=C3SC(=S)N(c4ccc(O)c(C(=O)O)c4)C3=O)o2)cc1` [Compound A65], the IC50 under setting [1] was less than 10 µM.

Compound `O=C(O)C(Cc1ccccc1)N1C(=O)C(=Cc2ccc(-c3cc4ccccc4s3)o2)SC1=S` (stereo not shown) [Compound J3] returned an IC50 (Dlat IC50 category, Table 10, Compounds J1 to J3) of less than 10 µM. For the compound `CC(C)c1cccc(-c2ccc(C=C3SC(=S)N(c4cccc(OCC(=O)O)c4)C3=O)o2)c1` [Compound A63], the IC50 under setting [1] is less than 10 µM.

On to `O=C(O)c1cccc(N2C(=O)C(=Cc3ccc(-c4cccc(-c5ccccc5)c4)o3)SC2=S)c1` [Compound A202], for which the IC50 under setting [1] was less than 10 µM. The same measure, in the same setting: the figure for `O=C(O)c1cccc(N2C(=O)C(=Cc3ccc(-c4ccc(Cc5ccc(Cl)cc5)cc4)o3)SC2=S)c1` [Compound A84] is less than 10 µM; for `O=C(O)c1ccc(F)c(N2C(=O)C(=Cc3ccc(-c4ccc(Cl)c(Cl)c4)o3)SC2=S)c1` [Compound A105] it is less than 10 µM. Consider `Cc1cccc(C)c1-c1ccc(C=C2SC(=S)N(c3cccc(C(=O)O)c3)C2=O)o1` [Compound A198], for which, under setting [1], the IC50 is less than 10 µM. The same measure, in the same setting: the figure for `O=C(O)c1ccc(N2C(=O)C(=Cc3ccc(-c4ccccc4Cl)o3)SC2=S)cc1` [Compound A16] is greater than 41 µM; for `COc1ccc(-c2ccc(C=C3SC(=S)N(c4cc(C(=O)O)ccc4F)C3=O)o2)cc1F` [Compound A178] it is less than 10 µM. Turning to `Cc1ccc(-c2ccc(C=C3SC(=S)N(C4CCCC(C(=O)O)C4)C3=O)o2)c(F)c1` (stereo not shown) [Compound C12, 3-{5-[1-[5-(2-fluoro-4-methyl-phenyl)-furan-2-yl]-methylidene]-4-oxo-2-thioxo-thiazolidin-3-yl}-cyclohexanecarboxylic acid], the IC50 (Dlat IC50 category) is less than 10 µM.

Regarding `NC(=O)c1cccc(N2C(=O)C(=Cc3ccc(-c4ccccc4Cl)o3)SC2=S)c1` [Compound A75], under setting [1], the 50% inhibitory concentration (IC50) lay in the range of 11 to 40 µM. Consider `O=C(O)CCN1C(=O)C(=Cc2ccc(-c3cccc(C(F)(F)F)c3)o2)SC1=S` [Compound B3], for which, under “Dlat IC50 category”, the IC50 is less than 10 µM.

`O=C(O)[C@@H](c1ccccc1)N1C(=O)C(=Cc2ccc(-c3ccc(Cl)cc3)o2)SC1=S` [Compound B36]: the IC50 (Dlat IC50 category) was less than 10 µM. In the case of `O=C(O)c1ccc(F)c(N2C(=O)C(=Cc3ccc(-c4ccc(OCc5ccccc5)cc4)o3)SC2=S)c1` [Compound A220], the IC50 under setting [1] lay in the range of 11 to 40 µM. Take `O=C(O)C1CCC(N2C(=O)C(=Cc3ccc(-c4ccccc4-c4ccccc4)o3)SC2=S)CC1` (stereo not shown) [Compound C71, 4-{5-[1-(5-biphenyl-2-yl-furan-2-yl)-methylidene]-4-oxo-2-thioxo-thiazolidin-3-yl}-cyclohexanecarboxylic acid]: where the note is “Dlat IC50 category”, the IC50 was less than 10 µM. Turning to `O=C(O)c1ccc(Cl)c(N2C(=O)C(=Cc3ccc(-c4ccc(Cl)c(Cl)c4)o3)SC2=S)c1` [Compound A107], the IC50 under setting [1] was less than 10 µM. Turning to `O=C1C(=Cc2ccc(-c3cccc(C(F)(F)F)c3)o2)SC(=S)N1c1ccc(O)cc1` [Compound A23], the IC50 under setting [1] is less than 10 µM. For `O=C(O)C(Cc1ccc(O)cc1)N1C(=O)C(=Cc2ccc(-c3ccccc3Cl)o2)SC1=S` (stereo not shown) [Compound B51], for the setting “Dlat IC50 category”, the IC50 is less than 10 µM. Consider `O=C(O)c1cccc(N2C(=O)C(=Cc3ccc(-c4ccc(Cl)cc4[N+](=O)[O-])o3)SC2=S)c1` [Compound A131], for which the IC50 under setting [1] fell in the range of 11 to 40 µM.

Consider `O=C(O)c1cc(C(=O)O)cc(N2C(=O)C(=Cc3ccc(-c4ccccc4Cl)o3)SC2=S)c1` [Compound A230], for which the IC50 under setting [1] was less than 10 µM.

In turn, `Cc1ccc(-c2cccc(C=C3SC(=S)N(C4CCC(C(=O)O)CC4)C3=O)c2)cc1` (stereo not shown) [Compound C69, 4-{5-[1-(4′-methyl-biphenyl-3-yl)-methylidene]-4-oxo-2-thioxo-thiazolidin-3-yl}-cyclohexanecarboxylic acid] came in with a half-inhibitory concentration (IC50) (Dlat IC50 category) of less than 10 µM. With `CC(C)(c1ccccc1)c1ccc(-c2ccc(C=C3SC(=S)N(c4cccc(C(=O)O)c4)C3=O)o2)cc1` [Compound A95], under setting [1], the IC50 is less than 10 µM.

For `Cc1ccc(-c2ccc(C=C3SC(=S)N(c4ccc(F)c(C(=O)O)c4)C3=O)o2)cc1` [Compound A260], the IC50 under setting [1] was less than 10 µM. The same measure, in the same setting: to `O=C1C(=Cc2ccc(-c3ccc(Cl)cc3)o2)SC(=S)N1c1cccc(O)c1` [Compound A51] belongs 11 to 40 µM. Compound `CC(C)C(C(=O)O)N1C(=O)C(=Cc2ccc(-c3ccc(Cl)c(Cl)c3)o2)SC1=S` (stereo not shown) [Compound B111] displayed a half-inhibitory concentration (IC50) (Dlat IC50 category) of less than 10 µM. Take `O=C(O)C1CCCC(N2C(=O)C(=Cc3ccc(-c4cccc(CO)c4)o3)SC2=S)C1` (stereo not shown) [Compound C42, 3-{5-[1-[5-(3-hydroxymethyl-phenyl)-furan-2-yl]-methylidene]-4-oxo-2-thioxo-thiazolidin-3-yl}-cyclohexanecarboxylic acid]: for the setting “Dlat IC50 category”, the half-maximal inhibitory concentration (IC50) was less than 10 µM.

The compound `O=C(O)C(Cc1ccc(O)c(O)c1)N1C(=O)C(=Cc2ccc(-c3cc(Cl)ccc3Cl)o2)SC1=S` (stereo not shown) [Compound B64] had an IC50 (Dlat IC50 category) of less than 10 µM.

For the compound `O=C(O)CN1C(=O)C(=Cc2ccc(-c3ccc(Cc4ccccc4)cc3)o2)SC1=S` [Compound B30], the IC50 (Dlat IC50 category) is less than 10 µM.

As to `O=C(O)c1cc(N2C(=O)C(=Cc3ccc(-c4ccc(Cl)cc4)o3)SC2=S)ccc1O` [Compound A34], the IC50 under setting [1] is less than 10 µM.

Take `O=C(O)[C@H](c1ccccc1)N1C(=O)C(=Cc2ccc(-c3ccc(Cl)cc3)o2)SC1=S` [Compound B37]: the IC50 (Dlat IC50 category) was less than 10 µM.

As for `CSc1ccc(-c2ccc(C=C3SC(=S)N(C4CCCC(C(=O)OCCO)C4)C3=O)o2)cc1` (stereo not shown) [Compound U3, 3-{5-[1-[5-(4-Methylsulfanyl-phenyl)-furan-2-yl]-methylidene]-4-oxo-2-thioxo-thiazolidin-3-yl}-cyclohexanecarboxylic acid 2-hydroxy-ethyl ester], where the note is “Dlat IC50 category, Table 21, Prodrugs (Examples U1 to U10)”, the 50% inhibitory concentration (IC50) was 41 to 80 µM.

`O=C(O)C1CCC(N2C(=O)C(=Cc3ccc(-c4ccccc4F)s3)SC2=S)CC1` (stereo not shown) [Compound C47, 4-{5-[1-[5-(2-fluoro-phenyl)-thiophen-2-yl]-methylidene]-4-oxo-2-thioxo-thiazolidin-3-yl}-cyclohexanecarboxylic acid] gave an IC50 (Dlat IC50 category) of 11 to 40 µM. Still for that read-out and setting: to `O=C(O)c1ccccc1NN1C(=O)C(=Cc2ccc(-c3cccc(-c4ccccc4)c3)o2)SC1=S` [Compound D40, 2-{5-[1-(5-biphenyl-3-yl-furan-2-yl)-methylidene]-4-oxo-2-thioxo-thiazolidin-3-ylamino}-benzoic acid] belongs less than 10 µM. `Cc1ccccc1-c1ccc(C=C2SC(=S)N(c3cc(C(=O)O)cc(C(=O)O)c3)C2=O)o1` [Compound A235]: the IC50 under setting [1] was less than 10 µM. `O=C(O)c1cccc(N2C(=O)C(=Cc3ccccc3-c3ccccc3OCc3ccccc3Cl)SC2=S)c1` [Compound A192]: the IC50 under setting [1] lay in the range of 11 to 40 µM.

For `O=C(O)c1cccc(N2C(=O)C(=Cc3ccc(-c4ccc(Cl)c(Cl)c4)o3)SC2=S)c1` [Compound A7], under setting [1], the IC50 was less than 10 µM. Take `O=C(O)C(c1ccccc1)N1C(=O)C(=Cc2ccc(-c3ccc(Oc4ccccc4)cc3)o2)SC1=S` (stereo not shown) [Compound B28]: the IC50 (Dlat IC50 category) fell in the range of 11 to 40 µM.

`CC(C)c1cccc(-c2ccc(C=C3SC(=S)N(CC(=O)O)C3=O)o2)c1` [Compound B72] registered an IC50 (Dlat IC50 category) of less than 10 µM.
